Results: PubChem BioAssay AID2202554 (NIEHS Division of Translational Toxicology (DTT))
Records with an inconclusive call do not appear. Calls of active or inactive are those of the source. No rule for the calls is given here.

Tested on: S. typhimurium/E. coli reverse mutation, colony counts
Test: Bacterial reverse mutation test (aka Ames test) summary data
How it was run: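 S. typhimurium his⁻ strains (TA97–TA1538) and E. coli WP2 uvrA pKM101 trp⁻, dosed over a range with or without rat, hamster or mouse liver S9. Preincubated 20 min at 37° C (or plate incorporation), plated in agar, incubated usually two days. Revertant colonies counted against negative controls.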

| Compound | outcome |
| --- | --- |
| Clc1ccc(C(c2ccc(Cl)cc2)c2ccc(Cl)cc2)cc1 | inactive; negative |
| CC(C)NC(C)C | inactive; negative |
| Clc1cccc(Cl)c1 | inactive; negative |
| C=CC(=O)OC | inactive; negative |
| Cc1c(O)cccc1C(=O)N[C@@H](CSc1ccccc1)[C@H](O)CN1C[C@H]2CCCC[C@H]2C[C@H]1C(=O)NC(C)(C)C | inactive; negative |
| O=[N+]([O-])c1ccc(Nc2ccc(Nc3ccccc3)c(S(=O)(=O)O)c2)c([N+](=O)[O-])c1 | active; positive |
| CCCCC(CC)CN (stereo not given) | inactive; negative |
| CCCCC/C=C\C/C=C\CCCCCCCC(=O)O | inactive; negative |
| CCCC=NO | active; weakly positive |
| c1ccc(CSCc2ccccc2)cc1 | inactive; negative |
| C=CCCCC | inactive; negative |
| O=[N+]([O-])c1cc(Cl)c(Cl)c(Cl)c1Cl | inactive; negative |
| C=C(C)C(=O)OCCCC | inactive; negative |
| C=C(C)[C@@]12O[C@@]3(c4ccccc4)O[C@@H]1[C@@H]1[C@@H]4O[C@]4(CO)[C@@H](O)[C@]4(O)C(=O)C(C)=C[C@H]4[C@@]1(O3)[C@H](C)[C@H]2OC(=O)/C=C/C=C/c1ccccc1 | inactive; negative |
| CCCC[N+]1(C)CCCC1 | inactive; negative |
| COP(=O)(OC)C(O)C(Cl)(Cl)Cl (stereo not given) | active; weakly positive |
| O=Nc1ccc(NO)cc1 | active; positive |
| c1ccc2c(c1)Oc1ccccc1S2 | inactive; negative |
| OCCN1CN(CCO)CN(CCO)C1 | active; positive |
| COC(=O)c1ccc(C)cc1 | inactive; negative |
| CCCCC(=O)OCC | inactive; negative |
| CCS(=O)CCSP(=O)(OC)OC (stereo not given) | active; positive |
| Cc1ccc(Nc2ccc(O)c3c2C(=O)c2ccccc2C3=O)cc1 | inactive; negative |
| O=S(=O)(O)c1cc(N=Nc2c(O)ccc3ccccc23)ccc1-c1ccc(N=Nc2c(O)ccc3ccccc23)cc1S(=O)(=O)O | inactive; negative |
| O=C(O)c1ccc(Cl)c(Cl)c1 | inactive; negative |

| Compound | outcome |
| --- | --- |
| Nc1c(N=Nc2ccc(-c3ccc(N=Nc4ccc(O)cc4)cc3)cc2)c(S(=O)(=O)O)cc2cc(S(=O)(=O)O)c(N=Nc3ccccc3)c(O)c12 | active; positive |
| O=[N+]([O-])c1ccc2c(c1)Cc1cccc([N+](=O)[O-])c1-2 | active; positive |
| OCCN1CC1 | active; positive |
| O=C(Nc1ccccc1SSc1ccccc1NC(=O)c1ccccc1)c1ccccc1 | inactive; negative |
| CCC[CH2][Sn]([CH2]CCC)([CH2]CCC)[O][Sn]([CH2]CCC)([CH2]CCC)[CH2]CCC | inactive; negative |
| [O-][n+]1ccccc1SSc1cccc[n+]1[O-] | inactive; negative |
| Cc1cccc(O)c1 | inactive; negative |
| ClC(Cl)(Cl)Cl | inactive; negative |
| CCCOC(=O)c1cc(O)c(O)c(O)c1 | inactive; negative |
| CCc1ccc(N)cc1 | inactive; negative |
| C=C(C)C(=O)OC(C)C | inactive; negative |
| O=C(O)c1ccc2c(c1)C(=O)OC2=O | inactive; negative |
| CC(C)(C#N)C(C)(C)C#N | inactive; negative |
| Cc1ccc(C)o1 | inactive; negative |
| Nc1ccc(-c2ccc(N)c(O)c2)cc1O | active; positive |
| CC(=O)c1c(=O)cc(C)oc1=O | inactive; negative |
| CC(=O)C1(C)CC2=C(CCCC2(C)C)CC1C (stereo not given) | inactive; negative |
| COc1ccc(OC)c(N=Nc2c(O)ccc3ccccc23)c1 | active; positive |
| C=Cc1ccccc1Cl | inactive; negative |
| S=C=S | inactive; negative |
| Cc1cc(N)ccc1-c1ccc(N)cc1C | active; positive |
| COP(=O)(O)OC | inactive; negative |
| S=P(N1CC1)(N1CC1)N1CC1 | active; positive |
| CCCCCCOc1ccc(O)cc1 | inactive; negative |
| NS(=O)(=O)c1cc2c(cc1Cl)NCNS2(=O)=O | inactive; negative |

| Compound | outcome |
| --- | --- |
| C[CH2][Hg][S]c1ccccc1C(=O)O | inactive; negative |
| CCCCC(CC)COC(=O)c1ccc(C(=O)OCC(CC)CCCC)c(C(=O)OCC(CC)CCCC)c1 (stereo not given) | inactive; negative |
| c1ccc2cc(Nc3ccc(Nc4ccc5ccccc5c4)cc3)ccc2c1 | active; positive |
| ClC1=C(Cl)[C@]2(Cl)[C@H]3[C@H]([C@@H]4C=C[C@H]3C4)[C@@]1(Cl)C2(Cl)Cl | inactive; negative |
| C=CC1CO1 (stereo not given) | active; positive |
| CCN(CC)CCCC(C)Nc1c2ccc(Cl)cc2nc2ccc(OC)cc12 (stereo not given) | active; positive |
| C/C=C/C=C/C(=O)O | inactive; negative |
| CCCCNS(=O)(=O)c1ccccc1 | inactive; negative |
| CC(C)(c1cc(Br)c(OCC(Br)CBr)c(Br)c1)c1cc(Br)c(OCC(Br)CBr)c(Br)c1 (stereo not given) | inactive; negative |
| COCOC | inactive; negative |
| [O]=[W](=[O])=[O] | inactive; negative |
| CCC1(c2ccccc2)C(=O)NC(=O)NC1=O | active; weakly positive |
| c1ccc2c(c1)-c1cccc3c1c-2cc1ccccc13 | active; positive |
| CCCNC(=O)NS(=O)(=O)c1ccc(Cl)cc1 | inactive; negative |
| NC(=O)NC(N)=O | active; positive |
| [Na+] | inactive; negative |
| O=C1NC(=O)C(O)(O)C(=O)N1 | inactive; negative |
| C[Si](C)(C)N[Si](C)(C)C | inactive; negative |
| O=c1[nH]cnc2[nH]ncc12 | active; weakly positive |
| CC(=O)OCCOCCOCCOC(C)=O | active; positive |
| c1cnc2c(c1)ccc1cccnc12 | inactive; negative |
| C=C(C)C(=O)NCCCN(C)C | inactive; negative |
| CCCCCCCCCCCCCCCCCC[N+](C)(C)Cc1ccccc1 | inactive; negative |
| O=[N+]([O-])c1ccccc1CCl | active; positive |
| CSSC | inactive; negative |

| Compound | outcome |
| --- | --- |
| CC(C)(COCC1CO1)COCC1CO1 (stereo not given) | active; positive |
| Cc1c(C)c2c(c(C)c1OC(=O)CCC(=O)O)CC[C@@](C)(CCC[C@H](C)CCC[C@H](C)CCCC(C)C)O2 | inactive; negative |
| Nc1c(Br)cc(Br)c2c1C(=O)c1ccccc1C2=O | active; positive |
| Cc1cccnc1 | inactive; negative |
| CN(C)C=O | inactive; negative |
| S=c1[nH]c2ccccc2[nH]1 | inactive; negative |
| Cc1ccc(N)cc1[N+](=O)[O-] | active; positive |
| CC=O | inactive; negative |
| CCCCN(CC)CC | inactive; negative |
| O=C(O)c1cccc(Cl)c1 | inactive; negative |
| N#Cc1ccccc1 | inactive; negative |
| Oc1c(Cl)c(Cl)cc(Cl)c1Cl | inactive; negative |
| Brc1cccc(-c2ccccc2)c1 | inactive; negative |
| Brc1ccccc1-c1ccccc1 | inactive; negative |
| O=[N+]([O-])c1cc([As](=O)(O)O)ccc1O | inactive; negative |
| CCCCCCCCCCCCCl | inactive; negative |
| O=C(OCC1CO1)c1cccc(C(=O)OCC2CO2)c1 (stereo not given) | active; positive |
| Oc1cccc2cccnc12 | active; positive |
| CCOC(C=C(C)CCC=C(C)C)OCC | active; positive |
| Nc1ccc(N)c(Cl)c1 | active; positive |
| C=CC(=O)OCC1CO1 (stereo not given) | active; positive |
| CCNNCC | inactive; negative |
| CC(C)CC(C)Nc1ccc(Nc2ccccc2)cc1 (stereo not given) | inactive; negative |
| CCO | inactive; negative |
| O=c1[nH]c(=O)n(Cl)c(=O)n1Cl | inactive; negative |

| Compound | outcome |
| --- | --- |
| c1cc2c3c(cccc3c1)CC2 | inactive; negative |
| Brc1ccc(-c2ccccc2)cc1 | inactive; negative |
| Cl/C=C/Cl | inactive; negative |
| NC(=O)c1ccccc1 | inactive; negative |
| CCCCCCCCCCCC(=O)[O][Sn]([CH2]CCC)([CH2]CCC)[O]C(=O)CCCCCCCCCCC | inactive; negative |
| Cc1cccc(C(=O)O)c1[N+](=O)[O-] | active; positive |
| FC(F)(F)c1ccccc1 | inactive; negative |
| Nc1ccc2cc(S(=O)(=O)O)c(N=Nc3ccc(-c4ccc(N=Nc5c(S(=O)(=O)O)cc6cc(S(=O)(=O)O)cc(N)c6c5O)cc4)cc3)c(O)c2c1 | active; positive |
| CC[n+]1c(-c2ccccc2)c2cc(N)ccc2c2ccc(N)cc21 | active; positive |
| C=C1C/C(=C/C)C(=O)O[C@@H]2CCN3CC=C(COC(=O)[C@]1(C)O)[C@H]23 | active; positive |
| Cc1ccc(N)cc1N | active; positive |
| CC=Cc1ccc(O)c(OC)c1 | inactive; negative |
| O=C(O)C(Br)(Br)Br | active; positive |
| COc1c2ccoc2cc2oc(=O)ccc12 | active; positive |
| Nc1ccc2cc(S(=O)(=O)O)c(N=Nc3ccc(-c4ccc(N=Nc5ccc(O)c(C(=O)O)c5)cc4)cc3)c(O)c2c1 | active; positive |
| O=C(O)CCCC(=O)O | inactive; negative |
| O=[N+]([O-])c1c(Cl)c(Cl)cc(Cl)c1Cl | active; weakly positive |
| O=c1[nH]cc(F)c(=O)[nH]1 | inactive; negative |
| CC(O)C#N (stereo not given) | active; weakly positive |
| CCC(C)c1ccccc1O (stereo not given) | inactive; negative |
| [CH3][Sn]([CH3])([Cl])[Cl] | inactive; negative |
| ClCc1ccccc1 | active; weakly positive |
| Cc1ccc(S(=O)(=O)NC2CCCCC2)cc1 | inactive; negative |
| CCOC(C)=O | inactive; negative |
| CCCCOCCO | inactive; negative |
